From patent publication US7041307B2, “Biocide-polyester concentrates and biocidal compositions prepared therefrom” (Ciba Specialty Chemicals Corporation, priority 1999, dated 2006)

Assay: Yellowness index (ASTM D1925) of polypropylene plaques after multiple pass extrusion, biocide as neat powder or polyester concentrate (Example 2)
Type: physicochemical
Settings: polypropylene plaque
Source text: Polypropylene homopolymer (PRO-FAX® 6501, Montell Polyolefins, 100 parts), stabilized with 0.05 parts of neopentanetetrayl tetrakis(3,5-di-tert-butyl-4-hydroxyhydrocinnamate), 0.10 parts of tris(2,4-di-tert-butylohenyl) phosphite and 0.05 parts of calcium stearate is dry blended without a biocide; or with 0.25 parts or with 0.50 parts of 2,4,4′-trichloro-2′-hydroxydiphenyl ether (IRGASAN® or IRGAGUARD®, Ciba Specialty Chemicals Corp.) either as a neat powder or as a concentrate as prepared in Example 1. The parts of components are by weight.
The extruded pellets are compression molded into 125 mil plaques (2″×2″, 5.08 cm×5.08 cm) at 450° F. (232° C.) for nine minutes (three minutes at low pressure; three minutes at high pressure; three minutes cooling). Yellowness index (YI) values are determined on the plaques according to ASTM D1925 on a DCI SF600 spectrophotometer. An increase in yellowness corresponds to a positive increase in the YI value.

For `Oc1cc(Cl)ccc1Oc1ccc(Cl)cc1Cl` [Powder, 2,4,4′-trichloro-2′-hydroxydiphenyl ether], the “Yellowness Index (YI) after multiple pass extrusion at 500° F. (260° C.) First” value (biocide 0.25% by wt) was 8.4, the “Yellowness Index (YI) after multiple pass extrusion at 550° F. (288° C.) First” value (biocide 0.25% by wt) was 6.4 and the “Yellowness Index (YI) after multiple pass extrusion at 500° F. (260° C.) Second” value (biocide 0.25% by wt) was 8.8. The “Yellowness Index (YI) after multiple pass extrusion at 550° F. (288° C.) Second” value (biocide 0.25% by wt) was 6.3, the “Yellowness Index (YI) after multiple pass extrusion at 500° F. (260° C.) Third” value (biocide 0.25% by wt) was 9.7 and the “Yellowness Index (YI) after multiple pass extrusion at 550° F. (288° C.) Third” value (biocide 0.25% by wt) was 6.6. For the same compound, the “Yellowness Index (YI) after multiple pass extrusion at 500° F. (260° C.) First” value (biocide 0.50% by wt) was 8.8, the “Yellowness Index (YI) after multiple pass extrusion at 550° F. (288° C.) First” value (biocide 0.50% by wt) was 7.1 and the “Yellowness Index (YI) after multiple pass extrusion at 500° F. (260° C.) Second” value (biocide 0.50% by wt) was 9.7. The “Yellowness Index (YI) after multiple pass extrusion at 550° F. (288° C.) Second” value (biocide 0.50% by wt) was 7.2, the “Yellowness Index (YI) after multiple pass extrusion at 500° F. (260° C.) Third” value (biocide 0.50% by wt) was 9.2 and the “Yellowness Index (YI) after multiple pass extrusion at 550° F. (288° C.) Third” value (biocide 0.50% by wt) was 7.4.
